Test results published in patent publication US10543215B2, “Combination therapy of cardiac myosin activator and sinus node if current inhibitor” (AMGEN INC., priority 2015, dated 2020).
Several values for one entry are separate records, joined by “and”; a condition that tells them apart may be missing. Equal entries are not always repeated.

System: conscious telemetered beagle dogs
Test: Left-ventricular hemodynamic, mechanical and timing indices by radio-telemetry before and during IV OM or vehicle, on repeated oral IVA or placebo
Assay type: in vivo, beagle dog
Method: Healthy male beagle dogs (n=7) instrumented with radio-telemetry units providing continuous single-lead electrocardiogram (ECG), as well as systemic (arterial, AoP) and left-ventricular (LVP) pressure signals were used for this study. Following sling acclimation, the animals were assigned to receive repeated oral (via gavage) treatments with either Ivabradine (IVA, 5 mg/kg bid) or a volume-matched placebo-control (sterile water, CTRL) for 5 days, administered at a dose volume of 10 mL/kg, in a cross over design.
The animals were sling-restrained and were subjected to acute intravenous administration of either sterile water (VEH, on Days 4 and 11 of dosing) or Omecamtiv Mecarbil (OM, on Days 5 and 12 of dosing). OM treatments were performed over a 3-hour infusion duration, following a dose-escalation design targeting plasma concentrations of 600 and 1000 ng/mL (each over 90 minutes, with a 30 minute loading infusion followed by a 60 minute maintenance infusion) for a cumulative dose of 5.293 mg/kg (as shown in Table A below). The IV vehicle treatments were time- and volume-matched.
Telemetered data were collected continuously for at least 90 minutes prior to and during dosing, as well as for at least 20 hours post-dose. The LVP and ECG signals were digitized at a sampling rate of at least 1000 Hz. The data were analyzed for heart rate (HR) and left-ventricular hemodynamic/mechanical indices that were obtained from the pressure waveform, including mean systolic (MSP) and end-diastolic (filling, EDP) pressures, the peak rates of pressure change during systole/diastole (dP/dtmax/min), as well as the time-constant of relaxation (tau) and a contractility index (CI: dP/dtmax normalized by the pressure at dP/dtmax). The data were also analyzed for systolic and diastolic intervals, including the estimated durations of the systolic ejection (SET), contraction (CT), active relaxation (RT) and filling intervals (FT), as well as the systolic-to-diastolic interval ratio (S/D: SET/RT+FT), which were derived from the left-ventricular pressure waveform.
The left-ventricular indices were evaluated only in the sling-restrained animals before and during IV treatment with OM or vehicle. Cardiovascular responses at each dose level were monitored for up to 90 minutes, i.e., over 3 hours total (during IV dosing of VEH and OM on Days 4, 5, 11, and 12 in the dose administration paradigm). Overall, in-sling cardiovascular data are reported at the following pre-determined/targeted time points: prior to dosing (i.e., at baseline, PRE) and approximately at the end of each infusion period (i.e., up to 4 time points during dosing, D1 to D4). Signals were analyzed continuously in 5-minute epochs, with pre-administration (i.e., PRE) values representing the overall mean over at least 5-epochs (i.e., 25 minutes) taken immediately prior to the onset of dosing, while during-dosing values reflect 5-minute averages (i.e., 1 epoch) taken prior to the (estimated) termination of each infusion. Data are presented as both means with standard deviations in summarizing tables/figure; beat-to-beat plots against heart rate are part of the study file.

[1] = D1, end of 30-min loading infusion, target OM 600 ng/mL
[2] = D2, end of 60-min maintenance infusion, target OM 600 ng/mL
[3] = D3, end of 30-min loading infusion, target OM 1000 ng/mL
[4] = D4, end of 60-min maintenance infusion, target OM 1000 ng/mL
[5] = PRE, before IV dosing (baseline)

## COC(=O)N1CCN(Cc2cccc(NC(=O)Nc3ccc(C)nc3)c2F)CC1 [OM, methyl 4-(2-fluoro-3-(3-(6-methylpyridin-3-yl)ureido)benzyl)piperazine-1-carboxylate]
[1]
  CT % vs. PRE: −3%
  CT (contraction time): 65.9 ms
  EDP % vs. PRE: −24%
  EDP (left-ventricular end-diastolic pressure): 9.8 mmHg
  FT % vs. PRE: 23%
  FT (filling time): 425 ms
  HR % vs. PRE: −14%
  HR (heart rate): 86 bpm
  MSP % vs. PRE: −2%
  MSP (left-ventricular mean systolic pressure): 127 mmHg
  RT % vs. PRE: 13%
  RT (relaxation time): 104 ms
  S/D % vs. PRE: 18%
  S/D (systolic to diastolic ratio, SET/RT + FT): 0.41
  SET % vs. PRE: 33%
  SET (systolic ejection time): 207 ms
  Tau % vs. PRE: 19 ± 3%
  Tau (left-ventricular relaxation time-constant): 36.7 ± 3.6 ms
  Vmax % vs. PRE: 3 ± 1%
  Vmax (estimated maximal velocity of myocardial contractile-element shortening): 36.0 ± 1.7 s⁻¹
  dP/dtmax % vs. PRE: −6%
  dP/dtmax (peak rate of LV pressure change during systole): 2,243 mmHg/s
  dP/dtmin % vs. PRE: −12%
  dP/dtmin (peak rate of LV pressure change during diastole): −1,910 mmHg/s
[2]
  CT % vs. PRE: −2%
  CT (contraction time): 66.7 ms
  EDP % vs. PRE: −33%
  EDP (left-ventricular end-diastolic pressure): 8.5 mmHg
  FT % vs. PRE: 2%
  FT (filling time): 321 ms
  HR % vs. PRE: 0%
  HR (heart rate): 99 bpm
  MSP % vs. PRE: 0%
  MSP (left-ventricular mean systolic pressure): 130 mmHg
  RT % vs. PRE: 20%
  RT (relaxation time): 110 ms
  S/D (systolic to diastolic ratio, SET/RT + FT): 0.5
  SET (systolic ejection time): 214 ms
  Tau % vs. PRE: 33 ± 5%
  Tau (left-ventricular relaxation time-constant): 41.1 ± 4.7 ms
  Vmax % vs. PRE: 7 ± 2%
  Vmax (estimated maximal velocity of myocardial contractile-element shortening): 37.2 ± 1.6 s⁻¹
  dP/dtmax % vs. PRE: −1±4% and −1%
  dP/dtmax (peak rate of LV pressure change during systole): 2,356 mmHg/s
  dP/dtmin % vs. PRE: −19%
  dP/dtmin (peak rate of LV pressure change during diastole): −1,759 mmHg/s
[3]
  CT % vs. PRE: −1%
  CT (contraction time): 67.0 ms
  EDP % vs. PRE: −13%
  EDP (left-ventricular end-diastolic pressure): 10.8 mmHg
  FT % vs. PRE: −27%
  FT (filling time): 251 ms
  HR % vs. PRE: 11%
  HR (heart rate): 112 bpm
  MSP % vs. PRE: 0%
  MSP (left-ventricular mean systolic pressure): 130 mmHg
  RT % vs. PRE: 24%
  RT (relaxation time): 114 ms
  S/D % vs. PRE: 73%
  S/D (systolic to diastolic ratio, SET/RT + FT): 0.60
  SET % vs. PRE: 34%
  SET (systolic ejection time): 208 ms
  Tau % vs. PRE: 53 ± 7%
  Tau (left-ventricular relaxation time-constant): 47.6 ± 6.5 ms
  Vmax % vs. PRE: 2 ± 2%
  Vmax (estimated maximal velocity of myocardial contractile-element shortening): 35.6 ± 2.0 s⁻¹
  dP/dtmax % vs. PRE: −3%
  dP/dtmax (peak rate of LV pressure change during systole): 2,319 mmHg/s
  dP/dtmin % vs. PRE: −26%
  dP/dtmin (peak rate of LV pressure change during diastole): −1,608 mmHg/s
[4]
  CT % vs. PRE: 5%
  CT (contraction time): 71.0 ms
  EDP % vs. PRE: 46%
  EDP (left-ventricular end-diastolic pressure): 17.8 mmHg
  FT % vs. PRE: −71%
  FT (filling time): 85 ms
  HR (heart rate): 162 bpm
  MSP % vs. PRE: −15%
  MSP (left-ventricular mean systolic pressure): 111 mmHg
  RT % vs. PRE: 1%
  RT (relaxation time): 93 ms
  S/D (systolic to diastolic ratio, SET/RT + FT): 1.06
  SET % vs. PRE: 5%
  SET (systolic ejection time): 162 ms
  Tau (left-ventricular relaxation time-constant): 54.7 ± 9.7 ms
  Vmax % vs. PRE: −19±8%
  Vmax (estimated maximal velocity of myocardial contractile-element shortening): 28.4 ± 3.4 s⁻¹
  dP/dtmax % vs. PRE: −23%
  dP/dtmax (peak rate of LV pressure change during systole): 1,844 mmHg/s
  dP/dtmin % vs. PRE: −41%
  dP/dtmin (peak rate of LV pressure change during diastole): −1,288 mmHg/s
[5]
  CT (contraction time): 67.9 ± 0.7 ms
  EDP (left-ventricular end-diastolic pressure): 12.3 mmHg
  FT (filling time): 370 ± 50 ms
  HR (heart rate): 102 bpm
  MSP (left-ventricular mean systolic pressure): 131 mmHg
  RT (relaxation time): 92 ± 3 ms
  S/D (systolic to diastolic ratio, SET/RT + FT): 0.36
  SET (systolic ejection time): 156 ± 7 ms
  Tau (left-ventricular relaxation time-constant): 30.8 ± 2.8 ms
  Vmax (estimated maximal velocity of myocardial contractile-element shortening): 34.9 ± 1.6 s⁻¹
  dP/dtmax (peak rate of LV pressure change during systole): 2,401 mmHg/s
  dP/dtmin (peak rate of LV pressure change during diastole): −2,167 mmHg/s
